Results as given in patent US20250304551A1 (SHANGHAI APEIRON THERAPEUTICS COMPANY LIMITED, priority 2022, published 2025).

Tests used:
HT29 cells = test: CyQuant cell proliferation activity test, HT29; assay type: cell-based; settings: Homo sapiens, HT-29, 72 h, HT29 2000 cells per well, 3 days incubation, initial concentration 3000 nM, IC50 by XLFIT, read-out: HT-29 Cell Viability_IC50_nM
Summary of the method: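 HT29 cells (2000/well, RPMI-1640 with 10% FBS) were plated overnight, then exposed to compound for 3 days at 37 °C, 5% CO2. Dosing was 9 concentrations, 3-fold dilutions from 3000 nM, in 0.20% DMSO. Proliferation was read with CyQuant reagent after 1 h, and IC50 derived from the curves.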

OVCAR3 cells = test: Cell proliferation activity test, OVCAR3 (CyQUANT Direct); assay type: cell-based; settings: Homo sapiens, OVCAR-3, 72 h, 3 days incubation, CyQUANT fluorescence detection, read-out: OVCAR-3 Cell Viability_IC50_nM
Summary of the method: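 OVCAR3 cells seeded overnight, then exposed to compounds at 0-10 μM final (0.20% DMSO) for 3 days at 37° C. Cell number read by CyQUANT Direct fluorescence after 60 min at 37° C.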

[1] = molecular target: T1, Human KIF18A (amino acid sequence 1-417) (Homo sapiens, UniProt Q8NI77); test: Enzyme activity detection experiment (ADP-Glo, KIF18A with tubulin and ATP); assay type: biochemical; settings: tubulin 60 μg/mL, ATP 25 μM, KIF18A protein 2.5 nM, 120 minutes at ambient temperature, ADP-Glo chemiluminescence
T1 construct: purchased Viva Biotech (Shanghai) Ltd
T1 sequence (Q8NI77 1-417): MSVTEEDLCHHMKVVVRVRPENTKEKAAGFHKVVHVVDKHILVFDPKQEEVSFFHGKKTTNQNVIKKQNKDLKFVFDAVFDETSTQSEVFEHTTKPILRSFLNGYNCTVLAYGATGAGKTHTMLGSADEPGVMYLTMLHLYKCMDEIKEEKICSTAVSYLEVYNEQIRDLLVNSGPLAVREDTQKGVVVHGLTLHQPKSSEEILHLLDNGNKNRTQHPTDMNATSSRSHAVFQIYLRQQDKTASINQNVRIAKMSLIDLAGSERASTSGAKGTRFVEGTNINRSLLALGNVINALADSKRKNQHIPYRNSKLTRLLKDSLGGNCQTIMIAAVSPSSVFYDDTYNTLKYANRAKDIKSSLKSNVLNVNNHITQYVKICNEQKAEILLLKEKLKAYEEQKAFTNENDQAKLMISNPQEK
T1 sequence (Q2XVP4 whole entry partner): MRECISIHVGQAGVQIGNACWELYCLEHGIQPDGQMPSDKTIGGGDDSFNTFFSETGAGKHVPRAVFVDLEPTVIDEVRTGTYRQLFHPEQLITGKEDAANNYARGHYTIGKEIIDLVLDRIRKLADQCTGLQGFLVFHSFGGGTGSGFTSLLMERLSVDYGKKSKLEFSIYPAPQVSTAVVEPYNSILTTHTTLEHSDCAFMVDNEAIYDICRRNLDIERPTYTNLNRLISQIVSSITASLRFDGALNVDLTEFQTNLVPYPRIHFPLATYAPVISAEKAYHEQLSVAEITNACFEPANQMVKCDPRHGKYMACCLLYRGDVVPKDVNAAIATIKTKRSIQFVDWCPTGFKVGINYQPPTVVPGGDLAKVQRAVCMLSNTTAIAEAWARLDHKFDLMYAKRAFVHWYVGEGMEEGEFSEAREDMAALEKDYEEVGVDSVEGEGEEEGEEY
T1 sequence (P02554 whole entry partner): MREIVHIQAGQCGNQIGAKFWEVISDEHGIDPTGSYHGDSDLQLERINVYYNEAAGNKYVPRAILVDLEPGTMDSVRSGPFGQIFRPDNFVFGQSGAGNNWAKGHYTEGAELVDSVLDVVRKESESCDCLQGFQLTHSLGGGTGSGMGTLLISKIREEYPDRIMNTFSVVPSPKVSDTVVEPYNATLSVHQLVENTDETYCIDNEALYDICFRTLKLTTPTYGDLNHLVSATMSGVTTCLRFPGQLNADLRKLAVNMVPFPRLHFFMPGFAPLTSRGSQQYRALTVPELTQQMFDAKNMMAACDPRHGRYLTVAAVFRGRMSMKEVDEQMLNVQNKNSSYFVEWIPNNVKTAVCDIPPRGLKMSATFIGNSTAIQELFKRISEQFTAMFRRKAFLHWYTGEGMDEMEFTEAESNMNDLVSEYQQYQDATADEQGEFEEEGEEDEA
Summary of the method: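 KIF18A (2.5 nM) was incubated with tubulin (60 μg/mL as added), ATP (25 μM) and serially diluted compound for 120 min at ambient temperature. ADP formed was detected by ADP-Glo: reagent for 30 min, then detection reagent for 30 min in the dark, with chemiluminescence read-out.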

Structure (SMILES): Cc1cc(-c2cn(-c3ccc(NS(=O)(=O)CCO)nc3N3CCC4(CC3)CC4)nn2)nc(N2CCC(F)(F)CC2)n1 [Example 66, N-(6-{6-azaspiro[2.5]octan-6-yl}-5-{4-[2-(4,4-difluoropiperidin-1-yl)-6-methylpyrimidin-4-yl]-1H-1,2,3-triazol-1-yl}pyridin-2-yl)-2-hydroxyethane-1-sulfonamide]
- IC50 (HT29 cells): 54 nM
- IC50 (OVCAR3 cells): 52.7 nM
- IC50 [1]: 62 nM

Structure (SMILES): Cc1cc(-c2cn(-c3cnc(NS(=O)(=O)CCO)cc3N3CCC4(CC3)CC4)nn2)nc(N2CCC(F)(F)CC2)n1 [Example 67, N-(4-{6-azaspiro[2.5]octan-6-yl}-5-{4-[2-(4,4-difluoropiperidin-1-yl)-6-methylpyrimidin-4-yl]-1H-1,2,3-triazol-1-yl}pyridin-2-yl)-2-hydroxyethane-1-sulfonamide]
- IC50 (HT29 cells): 19 nM
- IC50 (OVCAR3 cells): 25 nM
- IC50 [1]: 12 nM

Structure (SMILES): Cc1cc(-c2cn(-c3cnc(NS(=O)(=O)CCO)cc3N3CCC4(CC3)CC4)nn2)cc(N2CCC(F)(F)CC2)n1 [Example 68, N-(4-{6-azaspiro[2.5]octan-6-yl}-5-{4-[2-(4,4-difluoropiperidin-1-yl)-6-methylpyridin-4-yl]-1H-1,2,3-triazol-1-yl}pyridin-2-yl)-2-hydroxyethane-1-sulfonamide]
- IC50 (HT29 cells): 250 nM
- IC50 (OVCAR3 cells): 159 nM
- IC50 [1]: 112 nM

Structure (SMILES): Cc1cc(-c2nnn(-c3ccc(NS(=O)(=O)CCO)cc3N3CCC4(CC3)CC4)c2C)nc(N2CCC(F)(F)CC2)n1 [Example 69, N-(3-{6-azaspiro[2.5]octan-6-yl}-4-{4-[2-(4,4-difluoropiperidin-1-yl)-6-methylpyrimidin-4-yl]-5-methyl-1H-1,2,3-triazol-1-yl}phenyl)-2-hydroxyethane-1-sulfonamide]
- IC50 (HT29 cells): > 3000 nM
- IC50 (OVCAR3 cells): 1500 nM
- IC50 [1]: > 3000 nM

Structure (SMILES): CC(C)(O)c1ccc(-c2cn(-c3ccc(NS(=O)(=O)CCO)cc3N3CCC4(CC3)CC4)nn2)nc1N1CCC(F)(F)CC1 [Example 70, N-(4-(4-(6-(4,4-difluoropiperidin-1-yl)-5-(2-hydroxypropan-2-yl)pyridin-2-yl)-1H-1,2,3-triazol-1-yl)-3-(6-azaspiro[2.5]octan-6-yl)phenyl)-2-hydroxyethanesulfonamide]
- IC50 (HT29 cells): 700 nM
- IC50 (OVCAR3 cells): 582 nM
- IC50 [1]: 1230 nM

Structure (SMILES): CC(C)(O)c1cc(-c2cn(-c3ccc(NS(=O)(=O)CCO)cc3N3CCC4(CC3)CC4)nn2)nc(N2CCC(F)(F)CC2)n1 [Example 71, N-(4-(4-(2-(4,4-difluoropiperidin-1-yl)-6-(2-hydroxypropan-2-yl)pyrimidin-4-yl)-1H-1,2,3-triazol-1-yl)-3-(6-azaspiro[2.5]octan-6-yl)phenyl)-2-hydroxyethanesulfonamide]
- IC50 (HT29 cells): 131 nM
- IC50 (OVCAR3 cells): 94 nM
- IC50 [1]: 165 nM

Structure (SMILES): O=S(=O)(CCO)Nc1ccc(-n2cc(-c3cc(N4CCC(F)(F)CC4)c4ncccc4c3)nn2)c(N2CCC3(CC2)CC3)c1 [Example 72, N-(4-(4-(8-(4,4-difluoropiperidin-1-yl)quinolin-6-yl)-1H-1,2,3-triazol-1-yl)-3-(6-azaspiro[2.5]octan-6-yl)phenyl)-2-hydroxyethane-1-sulfonamide]
- IC50 (HT29 cells): 25 nM
- IC50 (OVCAR3 cells): 20 nM
- IC50 [1]: 190 nM

Structure (SMILES): O=S(=O)(CCO)Nc1ccc(-n2cc(-c3cc4cccnc4c(N4CCC(F)(F)CC4)c3F)nn2)c(N2CCC3(CC2)CC3)c1 [Example 73, N-(3-{6-azaspiro[2.5]octan-6-yl}-4-{4-[8-(4,4-difluoropiperidin-1-yl)-7-fluoroquinolin-6-yl]-1H-1,2,3-triazol-1-yl}phenyl)-2-hydroxyethane-1-sulfonamide]
- IC50 (HT29 cells): 63 nM
- IC50 (OVCAR3 cells): 34 nM
- IC50 [1]: 271 nM

Structure (SMILES): Cc1ccc2cc(-c3cn(-c4ccc(NS(=O)(=O)CCO)cc4N4CCC5(CC4)CC5)nn3)cc(N3CCC(F)(F)CC3)c2n1 [Example 74, N-(3-{6-azaspiro[2.5]octan-6-yl}-4-{4-[8-(4,4-difluoropiperidin-1-yl)-2-methylquinolin-6-yl]-1H-1,2,3-triazol-1-yl}phenyl)-2-hydroxyethane-1-sulfonamide]
- IC50 (HT29 cells): 127 nM
- IC50 (OVCAR3 cells): 119 nM
- IC50 [1]: 807 nM

Structure (SMILES): O=S(=O)(CCO)Nc1ccc(-n2cc(-c3cc(N4CCC(F)(F)CC4)c4nnccc4c3)nn2)c(N2CCC3(CC2)CC3)c1 [Example 76, N-(4-(4-(8-(4,4-difluoropiperidin-1-yl)cinnolin-6-yl)-1H-1,2,3-triazol-1-yl)-3-(6-azaspiro[2.5]octan-6-yl)phenyl)-2-hydroxyethane-1-sulfonamide]
- IC50 (HT29 cells): 16 nM
- IC50 (OVCAR3 cells): 12 nM
- IC50 [1]: 75 nM

Structure (SMILES): Nc1cc2cc(-c3cn(-c4ccc(NS(=O)(=O)CCO)cc4N4CCC5(CC4)CC5)nn3)cc(N3CCC(F)(F)CC3)c2nn1 [Example 77, N-(4-(4-(3-amino-8-(4,4-difluoropiperidin-1-yl)cinnolin-6-yl)-1H-1,2,3-triazol-1-yl)-3-(6-azaspiro[2.5]octan-6-yl)phenyl)-2-hydroxyethane-1-sulfonamide]
- IC50 (HT29 cells): 12 nM
- IC50 (OVCAR3 cells): 13 nM
- IC50 [1]: 64 nM

Structure (SMILES): Cc1cc(-c2cn(-c3ccc(NS(=O)(=O)CCO)cc3N3CCC4(CC3)CC4)nn2)cc(N2CCC(F)(F)CC2)c1[N+](=O)[O-] [Example 78, N-(3-{6-azaspiro[2.5]octan-6-yl}-4-{4-[3-(4,4-difluoropiperidin-1-yl)-5-methyl-4-nitrophenyl]-1H-1,2,3-triazol-1-yl}phenyl)-2-hydroxyethane-1-sulfonamide]
- IC50 (HT29 cells): > 3000 nM
- IC50 (OVCAR3 cells): > 3000 nM
- IC50 [1]: > 3000 nM

Structure (SMILES): Nc1ncc(-c2cn(-c3ccc(NS(=O)(=O)CCO)cc3N3CCC4(CC3)CC4)nn2)nc1N1CCC(F)(F)CC1 [Example 79, N-(4-{4-[5-amino-6-(4,4-difluoropiperidin-1-yl)pyrazin-2-yl]-1H-1,2,3-triazol-1-yl}-3-{6-azaspiro[2.5]octan-6-yl}phenyl)-2-hydroxyethane-1-sulfonamide]
- IC50 (HT29 cells): 7 nM
- IC50 (OVCAR3 cells): 11 nM
- IC50 [1]: 24 nM

Structure (SMILES): Nc1ccc2cc(-c3cn(-c4ccc(NS(=O)(=O)CCO)cc4N4CCC5(CC4)CC5)nn3)c(F)c(N3CCC(F)(F)CC3)c2n1 [Example 80, N-(4-{4-[2-amino-8-(4,4-difluoropiperidin-1-yl)-7-fluoroquinolin-6-yl]-1H-1,2,3-triazol-1-yl}-3-{6-azaspiro[2.5]octan-6-yl}phenyl)-2-hydroxyethane-1-sulfonamide]
- IC50 (HT29 cells): 26 nM
- IC50 (OVCAR3 cells): 21 nM
- IC50 [1]: 475 nM

Structure (SMILES): Nc1nc2c(N3CCC(F)(F)CC3)c(F)c(-c3cn(-c4ccc(NS(=O)(=O)CCO)cc4N4CCC5(CC4)CC5)nn3)cc2s1 [Example 81, N-(4-{4-[2-amino-4-(4,4-difluoropiperidin-1-yl)-5-fluoro-1,3-benzothiazol-6-yl]-1H-1,2,3-triazol-1-yl}-3-{6-azaspiro[2.5]octan-6-yl}phenyl)-2-hydroxyethane-1-sulfonamide]
- IC50 (HT29 cells): 30 nM
- IC50 (OVCAR3 cells): 20 nM
- IC50 [1]: 710 nM

Structure (SMILES): O=S(=O)(CCO)Nc1ccc(-n2cc(-c3ccc(-c4cccnc4)c(N4CCC(F)(F)CC4)n3)nn2)c(N2CCC3(CC2)CC3)c1 [Example 82, N-(3-{6-azaspiro[2.5]octan-6-yl}-4-{4-[2-(4,4-difluoropiperidin-1-yl)-[3,3′-bipyridyl]-6-yl]-1H-1,2,3-triazol-1-yl}phenyl)-2-hydroxyethane-1-sulfonamide]
- IC50 (HT29 cells): 23 nM
- IC50 (OVCAR3 cells): 15 nM
- IC50 [1]: 283 nM

Structure (SMILES): Cc1cc(-c2cn(-c3ccc(NS(=O)(=O)[C@H](C)CO)cc3N3CCC4(CC3)CC4)nn2)nc(N2CCC(F)(F)CC2)n1 [Example 83, (2R)—N-(3-{6-azaspiro[2.5]octan-6-yl}-4-{4-[2-(4,4-difluoropiperidin-1-yl)-6-methylpyrimidin-4-yl]-1H-1,2,3-triazol-1-yl}phenyl)-1-hydroxypropane-2-sulfonamide]
- IC50 (HT29 cells): 16 nM
- IC50 (OVCAR3 cells): 13 nM
- IC50 [1]: 117 nM

Structure (SMILES): Cc1cc(-c2cn(-c3ccc(NS(=O)(=O)[C@@H](C)CO)cc3N3CCC4(CC3)CC4)nn2)nc(N2CCC(F)(F)CC2)n1 [Example 84, (2S)—N-(3-{6-azaspiro[2.5]octan-6-yl}-4-{4-[2-(4,4-difluoropiperidin-1-yl)-6-methylpyrimidin-4-yl]-1H-1,2,3-triazol-1-yl}phenyl)-1-hydroxypropane-2-sulfonamide]
- IC50 (HT29 cells): 25 nM
- IC50 (OVCAR3 cells): 21 nM
- IC50 [1]: 125 nM

Structure (SMILES): Cc1cc(-c2cn(-c3ccc(NS(=O)(=O)C4(CO)CC4)cc3N3CCC4(CC3)CC4)nn2)nc(N2CCC(F)(F)CC2)n1 [Example 85, N-(3-{6-azaspiro[2.5]octan-6-yl}-4-{4-[2-(4,4-difluoropiperidin-1-yl)-6-methylpyrimidin-4-yl]-1H-1,2,3-triazol-1-yl}phenyl)-1-(hydroxymethyl)cyclopropane-1-sulfonamide]
- IC50 (HT29 cells): 34 nM
- IC50 (OVCAR3 cells): 25 nM
- IC50 [1]: 188 nM

Structure (SMILES): Cc1cc(-c2cn(-c3ccc(NS(=O)(=O)C(C)(C)CO)cc3N3CCC4(CC3)CC4)nn2)nc(N2CCC(F)(F)CC2)n1 [Example 86, N-(3-{6-azaspiro[2.5]octan-6-yl}-4-{4-[2-(4,4-difluoropiperidin-1-yl)-6-methylpyrimidin-4-yl]-1H-1,2,3-triazol-1-yl}phenyl)-1-hydroxy-2-methylpropane-2-sulfonamide]
- IC50 (HT29 cells): 21 nM
- IC50 (OVCAR3 cells): 22 nM
- IC50 [1]: 162 nM
